Experimental findings from BindingDB's records for doi:10.1074/jbc.M203194200 (Tanabe Seiyaku, 2002) are described below.

The target of the experiment is Oxoeicosanoid receptor 1 (Homo sapiens, UniProt Q8TDS5).
Sequence of Oxoeicosanoid receptor 1 (Q8TDS5 as listed by the source): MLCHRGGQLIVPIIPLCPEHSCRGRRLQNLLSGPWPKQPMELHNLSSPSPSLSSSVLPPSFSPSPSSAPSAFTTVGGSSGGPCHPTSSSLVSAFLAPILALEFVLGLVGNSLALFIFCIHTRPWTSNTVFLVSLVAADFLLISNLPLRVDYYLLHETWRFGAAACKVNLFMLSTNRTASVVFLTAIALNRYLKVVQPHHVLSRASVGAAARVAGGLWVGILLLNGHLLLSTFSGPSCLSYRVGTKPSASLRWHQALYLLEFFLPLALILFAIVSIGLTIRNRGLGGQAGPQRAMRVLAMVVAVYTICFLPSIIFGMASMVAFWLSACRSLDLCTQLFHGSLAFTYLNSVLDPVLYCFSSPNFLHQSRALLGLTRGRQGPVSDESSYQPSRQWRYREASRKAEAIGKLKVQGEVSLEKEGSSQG
As usually defined, the Ki is a measure of affinity in units of concentration, obtained from inhibition or displacement. The low end stands for higher affinity, the high end for lower affinity. For `CCCCC/C=C\C/C=C\C/C=C\CCCCCCC(=O)O` [(Z,Z,Z)-8,11,14-Eicosatrienoic acid], the Ki turned out to be 3.7 µM.
The same measure for `CC/C=C\C/C=C\C/C=C\C/C=C\C/C=C\CCCC(=O)O` [5,8,11,14,17-EICOSAPENTAENOIC ACID]: 6 µM; for `CC/C=C\C/C=C\C/C=C\C/C=C\C/C=C\C/C=C\CCC(=O)O` [all-cis-docosa-4,7,10,13,16,19-hexaenoic acid]: 1.6 µM.
